From patent US20210100834A1, “COMPOSITION CONTAINING A CHLORIDE SALT FOR USE IN PREGNANT ANIMALS” (Nutreco IP Assets B.V., priority 2017, published 2021)

Test system: pregnant sows
Experiment: Drinking water treatment of pregnant sows with calcium chloride and phosphoric acid, perinatal phenomena
Type: in vivo
Description: In another experiment, cations and anions were added to drinking water in such a balance, that the daily cation/anion balance of diet plus drinking water was reduced. For this, the drinking water contained 1.5 g calcium chloride per liter. […] In this experiment, next to the calcium chloride to reduce the daily cation/anion balance, a calcium binder (phosphoric acid, PhA)) was added in a concentration of 0.01 mol/liter.
It is believed that binding of dietary calcium in the gut and the inherent effect of reducing the amount of calcium available to the animal has as a consequence that the animal is triggered to mobilise calcium from its own mineral reserves in the bones. Therefore, when demand for calcium is increased as in parturition, the animal is more prepared to face this demand, and better equipped to maintain blood Ca levels.

SMILES: O=P(O)(O)O [PhA, phosphoric acid]
- Postnatal mortality (in vivo): 9.4%
- effect of addition of calcium binder on perinatal mortality (in vivo): no negative effect
- Piglets with colostrum intake <250 g/24 h (treated drinking water): 15.1%
- Average colostrum intake per piglet (treated drinking water, calculated from weight gain): 408 g/24 h
